Source: PubChem BioAssay AID248 (DTP/NCI, 2004)
“And” between values parts separate entries of the source, which are not always exact repeats. Equal entries are not always repeated. Toxic doses and inconclusive results are not listed. No stated cut-off is given here; in the data, active means T/C of 150% or more; inactive means T/C below 125%.

Test system: L1210 leukemia ip in BDF1 mice, survival T/C
Experiment: NCI In Vivo Anticancer Drug Screen. Data for tumor model L1210 Leukemia (intraperitoneal) in B6D2F1 (BDF1) mice
Conditions: endpoint: mean survival time, higher = longer survival
Outline: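 Mice bearing the transplanted tumor received compound or vehicle. Survival of the treated group was divided by that of the vehicle-treated control group to give the ratio.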

[1] = dose: 100.0 mg/kg/injection, schedule: Q04DX003 (ip), vehicle: saline with Tween-80
[2] = dose: 200.0 mg/kg/injection, schedule: Q04DX003 (ip), vehicle: saline with Tween-80
[3] = dose: 400.0 mg/kg/injection, schedule: Q04DX003 (ip), vehicle: saline with Tween-80
[4] = dose: 50.0 mg/kg/injection, schedule: Q01DX001 (ip), vehicle: carboxymethylcellulose (CMC)
[5] = dose: 100.0 mg/kg/injection, schedule: Q01DX001 (ip), vehicle: carboxymethylcellulose (CMC)
[6] = dose: 200.0 mg/kg/injection, schedule: Q01DX001 (ip), vehicle: carboxymethylcellulose (CMC)
[7] = dose: 100.0 mg/kg/injection, schedule: Q01DX009 (ip), vehicle: Klucel (hydroxypropylcellulose) (HPC)
[8] = dose: 200.0 mg/kg/injection, schedule: Q01DX009 (ip), vehicle: Klucel (hydroxypropylcellulose) (HPC)

Measured: T/C

O=C(NCCCl)NC1C2CC3CC(C2)CC1C3 (centres undefined)
inactive: dose: 75.0 mg/kg/injection, schedule: Q01DX001 (ip), vehicle: other 93 % of control | dose: 150.0 mg/kg/injection, schedule: Q01DX001 (ip), vehicle: other 89 % of control | dose: 300.0 mg/kg/injection, schedule: Q01DX001 (ip), vehicle: other 89 % of control

CCc1c(Cl)c(C)cc(O)c1Cl
inactive: dose: 25.0 mg/kg/injection, schedule: Q01DX009 (ip), vehicle: gum acacia 98 % of control | dose: 25.0 mg/kg/injection, schedule: Q04DX003 (ip), vehicle: gum acacia 100 % of control | dose: 50.0 mg/kg/injection, schedule: Q01DX009 (ip), vehicle: gum acacia 98 % of control | dose: 50.0 mg/kg/injection, schedule: Q04DX003 (ip), vehicle: gum acacia 90 % of control | dose: 100.0 mg/kg/injection, schedule: Q04DX003 (ip), vehicle: gum acacia 96 % of control

CC(=O)OC1CCC2C3CCc4cc(OC(=S)N(C)C)ccc4C3CCC12C (centres undefined)
inactive: [1] 101 % of control | [2] 101 % of control | [3] 110 % of control

Nc1cccc[n+]1CC1(c2ccccc2)OCCO1
inactive: dose: 50.0 mg/kg/injection, schedule: Q01DX001 (ip), vehicle: Klucel (hydroxypropylcellulose) (HPC) 110 % of control | dose: 100.0 mg/kg/injection, schedule: Q01DX001 (ip), vehicle: Klucel (hydroxypropylcellulose) (HPC) 106 % of control

CCC(=O)c1ccc2c(c1)N(C(C)CN(C)C)c1ccccc1S2 (centres undefined)
inactive: dose: 1.56 mg/kg/injection, schedule: Q03HX024 (ip), vehicle: saline 100 % of control | dose: 3.12 mg/kg/injection, schedule: Q03HX024 (ip), vehicle: saline 102 % of control | dose: 6.25 mg/kg/injection, schedule: Q01DX009 (ip), vehicle: saline 100 % of control and 106 % of control | dose: 6.25 mg/kg/injection, schedule: Q03HX024 (ip), vehicle: saline 100 % of control | dose: 6.25 mg/kg/injection, schedule: Q04DX003 (ip), vehicle: saline 101 % of control | dose: 12.5 mg/kg/injection, schedule: Q01DX009 (ip), vehicle: saline 104 % of control and 109 % of control and 110 % of control | dose: 12.5 mg/kg/injection, schedule: Q03HX024 (ip), vehicle: saline 100 % of control | dose: 12.5 mg/kg/injection, schedule: Q04DX003 (ip), vehicle: saline 103 % of control | dose: 18.75 mg/kg/injection, schedule: Q01DX001 (ip), vehicle: saline 107 % of control | dose: 25.0 mg/kg/injection, schedule: Q01DX009 (ip), vehicle: saline 106 % of control and 110 % of control and 116 % of control | dose: 25.0 mg/kg/injection, schedule: Q04DX003 (ip), vehicle: saline 103 % of control and 104 % of control | dose: 37.5 mg/kg/injection, schedule: Q01DX001 (ip), vehicle: saline 115 % of control | dose: 50.0 mg/kg/injection, schedule: Q01DX009 (ip), vehicle: saline 109 % of control and 118 % of control | dose: 50.0 mg/kg/injection, schedule: Q04DX003 (ip), vehicle: saline 109 % of control and 120 % of control | dose: 75.0 mg/kg/injection, schedule: Q01DX001 (ip), vehicle: saline 109 % of control | dose: 100.0 mg/kg/injection, schedule: Q01DX009 (ip), vehicle: saline 90 % of control | dose: 150.0 mg/kg/injection, schedule: Q01DX001 (ip), vehicle: saline 96 % of control

CCCCCCCCCCCC[N+]1(C)CC[N+](C)(CCCCCCCCCCCC)CC1 (centres undefined)
inactive: dose: 100.0 mg/kg/injection, schedule: Q04DX002 (ip), vehicle: other 105 % of control | dose: 200.0 mg/kg/injection, schedule: Q04DX002 (ip), vehicle: other 101 % of control

CN1C(=O)OC2C3NC(=O)OC3C(O)C(O)C21 (centres undefined)
inactive: [4] 109 % of control | [5] 109 % of control | [6] 107 % of control | dose: 400.0 mg/kg/injection, schedule: Q01DX001 (ip), vehicle: carboxymethylcellulose (CMC) 102 % of control

O=C1OC(c2cccc(Cl)c2)=N/C1=C\c1cccc2ccccc12
inactive: [7] 90 % of control | [8] 90 % of control | dose: 400.0 mg/kg/injection, schedule: Q01DX009 (ip), vehicle: Klucel (hydroxypropylcellulose) (HPC) 96 % of control

NC(CSSc1ccccc1)=NCC12CC3CC(CC(C3)C1)C2
inactive: dose: 10.0 mg/kg/injection, schedule: Q01DX001 (ip), vehicle: carboxymethylcellulose (CMC) 96 % of control | dose: 20.0 mg/kg/injection, schedule: Q01DX001 (ip), vehicle: carboxymethylcellulose (CMC) 98 % of control

O=C(/C=C/c1ccco1)c1ccc(Cl)cc1
inactive: dose: 100.0 mg/kg/injection, schedule: Q01DX009 (ip), vehicle: saline sonified 91 % of control | dose: 200.0 mg/kg/injection, schedule: Q01DX009 (ip), vehicle: saline sonified 104 % of control | dose: 400.0 mg/kg/injection, schedule: Q01DX009 (ip), vehicle: saline sonified 94 % of control

CCOC(=O)CCN(C(=O)Nc1ccccc1)C1CCCCC1
inactive: dose: 100.0 mg/kg/injection, schedule: Q01DX Z (ip), vehicle: methylcellulose (MC) 92 % of control | dose: 200.0 mg/kg/injection, schedule: Q01DX Z (ip), vehicle: methylcellulose (MC) 97 % of control

CNc1nc(SCc2ccccc2)c2ncn(C3OC(CO)C(O)C3O)c2n1 (centres undefined)
inactive: [4] 106 % of control | [5] 95 % of control | [6] 104 % of control

C=CC(C)C1CCC2(C)C3=C(C(=O)CC12C)C1(C)CCC(OC(C)=O)C(C)(C)C1=C(OC(C)=O)C3=O (centres undefined)
inactive: [1] 91 % of control | [2] 91 % of control | [3] 87 % of control

C/C(=N/NC(=O)C1CCCO1)c1ccc(C)cc1 (centres undefined)
inactive: dose: 12.5 mg/kg/injection, schedule: Q01DX009 (ip), vehicle: Klucel (hydroxypropylcellulose) (HPC) 104 % of control | dose: 25.0 mg/kg/injection, schedule: Q01DX009 (ip), vehicle: Klucel (hydroxypropylcellulose) (HPC) 102 % of control

c1ccc([P+](CCCCCCCCCC[P+](c2ccccc2)(c2ccccc2)c2ccccc2)(c2ccccc2)c2ccccc2)cc1
inactive: dose: 5.0 mg/kg/injection, schedule: Q01DX001 (ip), vehicle: saline 105 % of control | dose: 10.0 mg/kg/injection, schedule: Q01DX001 (ip), vehicle: saline 102 % of control | dose: 20.0 mg/kg/injection, schedule: Q01DX001 (ip), vehicle: saline 110 % of control

CCCCCCCCCCCCO
inactive: [7] 88 % of control | [8] 96 % of control
